The record followed here is patent US9630922B2, “3-spiro-7-hydroxamic acid tetralins as HDAC inhibitors” (Forma Therapeutics, Inc., priority 2015, dated 2017).

Molecules are shown by their SMILES.

This experiment concerns the target T1, HDAC6 (Homo sapiens, UniProt Q9UBN7).
T1 construct: Full length human recombinant HDAC6 protein was expressed in baculoviral system; made in house; host or cells: baculoviral system
T1 sequence (Q9UBN7 1-1215): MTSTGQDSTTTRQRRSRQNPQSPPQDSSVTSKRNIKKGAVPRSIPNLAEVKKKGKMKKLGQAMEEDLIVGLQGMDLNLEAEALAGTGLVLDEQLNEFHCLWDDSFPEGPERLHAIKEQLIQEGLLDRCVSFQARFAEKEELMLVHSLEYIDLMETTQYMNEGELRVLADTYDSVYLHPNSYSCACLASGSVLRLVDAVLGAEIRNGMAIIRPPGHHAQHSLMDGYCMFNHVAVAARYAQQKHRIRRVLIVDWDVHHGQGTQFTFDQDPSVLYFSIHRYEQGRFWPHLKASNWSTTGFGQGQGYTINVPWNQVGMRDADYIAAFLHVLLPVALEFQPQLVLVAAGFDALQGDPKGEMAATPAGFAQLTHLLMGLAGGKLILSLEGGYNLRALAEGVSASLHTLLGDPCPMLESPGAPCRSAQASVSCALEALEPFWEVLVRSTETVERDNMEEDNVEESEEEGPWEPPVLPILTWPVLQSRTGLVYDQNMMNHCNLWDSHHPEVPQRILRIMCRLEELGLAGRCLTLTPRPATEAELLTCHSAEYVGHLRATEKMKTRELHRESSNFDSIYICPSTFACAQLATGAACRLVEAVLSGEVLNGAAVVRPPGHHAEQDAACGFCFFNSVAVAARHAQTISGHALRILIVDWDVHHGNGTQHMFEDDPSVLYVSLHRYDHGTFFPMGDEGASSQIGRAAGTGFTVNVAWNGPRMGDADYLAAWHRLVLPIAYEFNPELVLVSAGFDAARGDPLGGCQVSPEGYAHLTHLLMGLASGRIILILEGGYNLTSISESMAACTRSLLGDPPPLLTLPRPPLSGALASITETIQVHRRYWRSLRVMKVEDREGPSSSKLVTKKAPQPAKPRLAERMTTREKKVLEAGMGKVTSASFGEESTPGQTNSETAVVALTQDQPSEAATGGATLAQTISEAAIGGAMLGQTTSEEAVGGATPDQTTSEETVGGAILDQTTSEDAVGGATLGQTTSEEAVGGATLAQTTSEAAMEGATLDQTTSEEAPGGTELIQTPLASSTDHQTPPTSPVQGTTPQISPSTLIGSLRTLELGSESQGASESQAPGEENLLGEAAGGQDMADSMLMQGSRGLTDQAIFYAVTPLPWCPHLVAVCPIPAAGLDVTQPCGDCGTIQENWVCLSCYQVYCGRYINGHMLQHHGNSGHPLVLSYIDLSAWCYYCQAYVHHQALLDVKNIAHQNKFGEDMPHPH
Briefly: In vitro Histone Deacetylase Assay (enzymatic HDAC6 electrophoretic mobility shift assay). Type of experiment: biochemical. Conditions: full length human recombinant HDAC6, 1 nM enzyme, 2 μM peptide substrate RHKK(Ac)-NH2, 25° C.; read-out: HDAC6 activity range. As to the method: The enzymatic HDAC6 assay was performed using electrophoretic mobility shift assay. Full length human recombinant HDAC6 protein was expressed in baculoviral system and purified by affinity chromatography. The enzymatic reactions were assembled in 384 well plates in a total volume of 25 μL in a reaction buffer composing: 100 mM HEPES, pH7.5, 25 mM KCl, 0.1% bovine serum albumin, 0.01% Triton X-100, 1% DMSO (from compounds) 2 μM of the fluorescently labeled peptide substrate and enzyme. The enzyme was added at a final concentration of 1 nM. The peptide substrate RHKK(Ac)—NH2 was used. The compounds were tested at 12 concentrations spaced by 3× dilution intervals. Negative control samples (0%-inhibition in the absence of inhibitor) and positive control samples (100%-inhibition) were assembled in replicates of four in each assay plate. The reactions were incubated at 25° C. and quenched by the addition of 45 μL of termination buffer (100 mM HEPES, pH 7.5, 0.01% Triton X-100, 0.05% SDS).
The terminated assay plates were analyzed on LabChip® 3000 microfluidic electrophoresis instrument (Perkin Elmer/Caliper Life Sciences). The fluorescence intensity of the electrophoretically separated de-acetylated product and substrate peptide was measured. Activity in each sample was determined as the product to sum ratio (PSR): P/(S+P), where P is the peak height of the product peptide and S is the peak height of the substrate peptide. Percent inhibition (Pinh) is determined using the following equation:
Pinh=(PSR0%−PSRinh)/(PSR0%−PSR100%)*100, where PSRinh is the product sum ratio in the presence of inhibitor, PSR0% is the average product sum ration in the absence of inhibitor and PSR100% is the average product sum ratio in 100%-inhibition control samples. The IC50 values of inhibitors were determined by fitting the %-inhibition curves with 4 parameter dose-response model using XLfit 4 software.
As set forth in Table-31, below, IC50 values are defined as follows: IC50≦0.1 μM (+++); IC50>0.1 μM and ≦0.5 μM (++); IC50>0.5 μM (+).
In the case of `O=C(NO)c1ccc2c(c1)CCC1(CCN(CC3CCOCC3)C1=O)O2` (stereo not shown) [Compound I-234, N-hydroxy-2′-oxo-1′-((tetrahydro-2H-pyran-4-yl)methyl)spiro[chromane-2,3′-pyrrolidine]-6-carboxamide], the IC50 was > 500 nM.
As to `O=C(NO)c1ccc2c(c1)CC[C@]1(CCN(c3cccc(F)c3F)C1=O)C2` [Compound I-123, (R)-1′-(2,3-difluorophenyl)-N-hydroxy-2′-oxo-3,4-dihydro-1H-spiro[naphthalene-2,3′-pyrrolidine]-6-carboxamide], the IC50 is ≤ 100 nM.
As for `O=C(NO)c1ccc2c(c1)CC[C@]1(CCCN(C3CC3)C1=O)C2` [Compound I-183, (S)-1′-cyclopropyl-N-hydroxy-2′-oxo-3,4-dihydro-1H-spiro[naphthalene-2,3′-piperidine]-6-carboxamide], the IC50 was ≤ 100 nM.
For the compound `O=C(NO)c1ccc2c(c1)CC[C@@]1(CCN(Cc3ccccc3C(F)(F)F)C1=O)C2` [Compound I-67, (S)-N-hydroxy-2′-oxo-1′-(2-(trifluoromethyl)benzyl)-3,4-dihydro-1H-spiro[naphthalene-2,3′-pyrrolidine]-6-carboxamide], the IC50 lay in the range of 100 to 500 nM.
`COc1ccc(N2CC[C@]3(CCc4cc(C(=O)NO)ccc4C3)C2=O)cc1F` [Compound I-90, (R)-1′-(3-fluoro-4-methoxyphenyl)-N-hydroxy-2′-oxo-3,4-dihydro-1H-spiro[naphthalene-2,3′-pyrrolidine]-6-carboxamide]: the IC50 was ≤ 100 nM.
The value for `O=C(NO)c1ccc2c(c1)CC[C@]1(CCN(c3cccc(F)c3)C1=O)C2` [Compound I-113, (R)-1′-(3-fluorophenyl)-N-hydroxy-2′-oxo-3,4-dihydro-1H-spiro[naphthalene-2,3′-pyrrolidine]-6-carboxamide] was ≤ 100 nM.
For the compound `CCN1CC[C@@]2(CCc3cc(C(=O)NO)ccc3C2)C1=O` [Compound I-162, (S)-1′-ethyl-N-hydroxy-2′-oxo-3,4-dihydro-H-spiro[naphthalene-2,3′-pyrrolidine]-6-carboxamide], the IC50 is ≤ 100 nM.
As to `O=C(NO)c1ccc2c(c1)CC[C@]1(CCN(c3ccc4c(c3)OCO4)C1=O)C2` [Compound I-91, (R)-1′-(benzo[d][1,3]dioxol-5-yl)-N-hydroxy-2′-oxo-3,4-dihydro-1H-spiro[naphthalene-2,3′-pyrrolidine]-6-carboxamide], the IC50 was ≤ 100 nM.
The value for `COc1ccc(CN2CCC3(CCc4cc(C(=O)NO)ccc4O3)CC2)cc1` [II-1, N-hydroxy-1′-(4-methoxybenzyl)spiro[chromane-2,4′-piperidine]-6-carboxamide] was > 500 nM; that for `O=C(NO)c1ccc2c(c1)CCC1(CCN(C(=O)C3CCCCC3)CC1)O2` [II-3, 1′-(cyclohexanecarbonyl)-N-hydroxyspiro[chromane-2,4′-piperidine]-6-carboxamide] was > 500 nM.
For the compound `O=C(NO)c1ccc2c(c1)CC[C@]1(CCN(Cc3cc(Cl)ccc3Cl)C1=O)C2` [Compound I-48, (R)-1′-(2,5-dichlorobenzyl)-N-hydroxy-2′-oxo-3,4-dihydro-1H-spiro[naphthalene-2,3′-pyrrolidine]-6-carboxamide], the IC50 is ≤ 100 nM.
The value for `O=C(NO)c1ccc2c(c1)CC[C@@]1(CCN(c3cccnc3)C1=O)C2` [Compound I-11, (S)-N-hydroxy-2′-oxo-1′-(pyridin-3-yl)-3,4-dihydro-1H-spiro[naphthalene-2,3′-pyrrolidine]-6-carboxamide] was ≤ 100 nM; that for `CN1CC[C@@]2(CCc3cc(C(=O)NO)ccc3C2)C1=O` [Compound I-105, (S)-N-hydroxy-1′-methyl-2′-oxo-3,4-dihydro-1H-spiro[naphthalene-2,3′-pyrrolidine]-6-carboxamide] was ≤ 100 nM.
Turning to `O=C(NO)c1ccc2c(c1)CC[C@]1(CCNC1=O)C2` [Compound I-27, (R)-N-hydroxy-2′-oxo-3,4-dihydro-1H-spiro[naphthalene-2,3′-pyrrolidine]-6-carboxamide], the IC50 was ≤ 100 nM.
With `CSc1cccc(N2CC[C@]3(CCc4cc(C(=O)NO)ccc4C3)C2=O)c1` [Compound I-92, (R)-N-hydroxy-1′-(3-(methylthio)phenyl)-2′-oxo-3,4-dihydro-1H-spiro[naphthalene-2,3′-pyrrolidine]-6-carboxamide], the IC50 was ≤ 100 nM.
In the case of `O=C(NO)c1ccc2c(c1)CC[C@@]1(CCN(c3ccccn3)C1=O)C2` [Compound I-21, (S)-N-hydroxy-2′-oxo-1′-(pyridin-2-yl)-3,4-dihydro-1H-spiro[naphthalene-2,3′-pyrrolidine]-6-carboxamide], the IC50 was ≤ 100 nM.
Turning to `O=C(NO)c1ccc2c(c1)CCC1(CC(=O)N(C3CC3)C1)C2` (single isomer, unassigned) [Compound I-214], the IC50 is ≤ 100 nM.
The value for `O=C(NO)c1ccc2c(c1)CC[C@]1(CCN(c3ccc4nccn4c3)C1=O)C2` [Compound I-99, (R)-N-hydroxy-1′-(imidazo[1,2-a]pyridin-6-yl)-2′-oxo-3,4-dihydro-1H-spiro[naphthalene-2,3′-pyrrolidine]-6-carboxamide] was ≤ 100 nM; that for `CC(C)N1CC2(CCc3cc(C(=O)NO)ccc3C2)CC1=O` (single isomer, unassigned) [Compound I-213] was ≤ 100 nM.
The value for `O=C(NO)c1ccc2c(c1)CC[C@]1(CCN(Cc3ccc(Cl)cc3)C1=O)C2` [Compound I-55, (R)-1′-(4-chlorobenzyl)-N-hydroxy-2′-oxo-3,4-dihydro-1H-spiro[naphthalene-2,3′-pyrrolidine]-6-carboxamide] was ≤ 100 nM; that for `CC(C)CCN1CC[C@]2(CCc3cc(C(=O)NO)ccc3C2)C1=O` [Compound I-34] was ≤ 100 nM; that for `O=C(NO)c1ccc2c(c1)CC[C@@]1(CCN(c3ccncc3)C1=O)C2` [Compound I-17, (S)-N-hydroxy-2′-oxo-1′-(pyridin-4-yl)-3,4-dihydro-1H-spiro[naphthalene-2,3′-pyrrolidine]-6-carboxamide] was ≤ 100 nM.
For `C=C(C)CN1CC[C@]2(CCc3cc(C(=O)NO)ccc3C2)C1=O` [Compound I-47, (R)-N-hydroxy-1′-(2-methylallyl)-2′-oxo-3,4-dihydro-1H-spiro[naphthalene-2,3′-pyrrolidine]-6-carboxamide], the IC50 was ≤ 100 nM.
With `O=C(NO)c1ccc2c(c1)CC[C@@]1(CCN(c3cccc(F)c3F)C1=O)C2` [Compound I-156, (S)-1′-(2,3-difluorophenyl)-N-hydroxy-2′-oxo-3,4-dihydro-1H-spiro[naphthalene-2,3′-pyrrolidine]-6-carboxamide], the IC50 is ≤ 100 nM.
Regarding `O=C(NO)c1ccc2c(c1)CC[C@]1(CC(=O)N(c3ccccn3)C1)C2` [Compound I-229, (R)-N-hydroxy-5′-oxo-1′-(pyridin-2-yl)-3,4-dihydro-1H-spiro[naphthalene-2,3′-pyrrolidine]-6-carboxamide], the IC50 is ≤ 100 nM.
